Experimental data taken from patent US20240173329A1, “BELVARAFENIB FOR USE IN TREATMENT OF BRAIN CANCERS” (Genentech, Inc., priority 2021, published 2024).

Experiments:
[1] = Pharmacokinetic profile and brain distribution in mice after oral administration; assay type: in vivo, mice (ICR); details: for Kp / Cmax / Tmax / AUC(0-t) / MRT last / half-life / AUC(0-inf): ICR (CD-1), mouse
Experimental: Example 1 evaluated pharmacokinetic profile and brain distribution of belvarafenib in mice after oral administration.
The mouse strain was ICR (CD-1®) supplied by Orient Bio Inc., Korea.
The mice were kept in conventional animal lab cages for 5 days for acclimation before the start of the experiment. The cages were polysulfone 1291H (W425×D266×H185 mm, Techniplast, Italy). Twelve mice were housed in each cage at a temperature of 22±2° C., a relative humidity of 50±20%, a ventilation frequency of 10-15 times/h, a 12 hour light/dark cycle, a light intensity of 150-300 Lux, at least weekly cage replacement. The mice were fed Picolab Rodent diet (5053, Lab Diet, USA) with abundant tap water.
The mice were dosed with belvarafenib dihydrochloride, 99.6% purity, that was stored at room temperature. Dosing was based on active ingredient free base and was corrected for assay and water content. The dosing vehicle was DMSO (5%), cremophore EL (5%), and deionized water (90%). Belvarafenib for dosing (28.08 mg) was dissolved in 14.40 mL of the vehicle for a final concentration of 1.950 mg/mL.
In a single one day dosing regimen, mice were fasted overnight. The body weight of the mice was measured on the day of treatment, from which dosing volumes were set. […] The mice were fed 4 hours post-dose.
Blood (0.3 mL) was collected from the retro-orbital plexus at 0.5, 1, 2, 4, 7, 24, 48, and 72 hours after belvarafenib administration. Plasma was obtained by centrifugation at 12,000 rpm for 2 minutes (Eppendorf) and then harvested and stored at −20° C. (Panasonic, MDF-U334-PK) until analysis.
After bloodletting of mice at each time point, the brain was collected immediately without perfusion. Brain tissue was washed one to two times with saline to remove surface blood. The brains were then trimmed. The collected brain tissue was accurately weighed and mixed with 4-fold saline based on brain weight (a final dilution factor of 5-fold). Each brain sample was then homogenized and placed in a 1.5 mL tube and stored at −20° C. (Panasonic, MDF-U334-PK) until analysis.
(§1) Plasma and brain of untreated animals were similarly obtained for use as a blank matrix.
(§2) Plasma and brain concentrations of belvarafenib determined by analysis using LC-MS/MS (Waters UPLC H-Class/Xevo TQ (Waters USA)).
(§3) Pharmacokinetic parameters of belvarafenib were calculated from plasma and brain concentration-time data by a non-compartmental method using Phoenix™ WinNonlin 8.1 (Certara, USA). The peak plasma and brain concentration (Cmax) and the corresponding time (Tmax) were directly obtained from the raw data. The area under the plasma curve (AUClast) was obtained by linear-log trapezoidal summation. Other PK parameters such as AUC from dosing time extrapolated to infinity (AUCinf), half-life (t1/2) and mean residence time (MTRlast) were calculated using WinNonlin. The plasma and brain concentrations of belvarafenib were presented as MEAN±S.D. The brain to plasma (B/P) ratio of Belvarafenib was calculated by dividing AUClast in the brain by AUClast in the plasma.

[2] = Pharmacokinetic profile and brain distribution in rats after oral administration; assay type: in vivo, rats (SD); details: for Kp / Cmax / Tmax / AUC(0-t) / MRT last / half-life / AUC(0-inf): rat
Experimental: Example 2 evaluated pharmacokinetic profile and brain distribution of belvarafenib in rats after oral administration.
The rat strain was SD supplied by Orient Bio Inc., Korea.
The rats were kept in conventional animal lab cages for 5 days for acclimation before the start of the experiment. The cages were polysulfone 1291H (W425×D266×H185 mm, Techniplast, Italy). Three rats were housed in each cage at a temperature of 22±2° C., a relative humidity of 50±20%, a ventilation frequency of 10-15 times/h, a 12 hour light/dark cycle, a light intensity of 150-300 Lux, at least weekly cage replacement. The mice were fed Picolab Rodent diet (5053, Lab Diet, USA) with abundant tap water.
The rats were dosed with belvarafenib dihydrochloride, 99.6% purity, that was stored at room temperature. Dosing was based on active ingredient free base and was corrected for assay and water content. The dosing vehicle was DMSO (10%), PEG 400 (50%), and deionized water (40%). Belvarafenib for dosing (169.51 mg) was dissolved in 86.93 mL of the vehicle for a final concentration of 1.950 mg/mL.
In a single one day dosing regimen, rats were fasted overnight. The body weight of the rats was measured on the day of treatment, from which dosing volumes were set. […] The rats were fed 4 hours post-dose.
Blood (0.3 mL) was collected from the abdominal artery at 0.5, 1, 2, 4, 7, 24, 48, and 72 hours after belvarafenib administration. Plasma was obtained by centrifugation at 12,000 rpm for 2 minutes (Eppendorf) and then harvested and stored at −20° C. (Panasonic, MDF-U334-PK) until analysis.
After bloodletting of rats at each time point, the brain was collected immediately without perfusion. Brain tissue was washed one to two times with saline to remove surface blood. The brains were then trimmed. The collected brain tissue was accurately weighed and mixed with 4-fold saline based on brain weight (a final dilution factor of 5-fold). Each brain sample was then homogenized and placed in a 1.5 mL tube and stored at −20° C. (Panasonic, MDF-U334-PK) until analysis.
as §1, §2, §3

[3] = single oral 15 mg/kg, pre- and post-dosing periods
[4] = SD (Sprague-Dawley), oral 30 mg/kg, brain
[5] = SD (Sprague-Dawley), oral 30 mg/kg, plasma
[6] = male, SD, oral 15 mg/kg, plasma

## Cc1ccc2c(Nc3cccc(Cl)c3F)nccc2c1NC(=O)c1csc2c(N)ncnc12 [Belvarafenib, 4-amino-N-(1-((3-chloro-2-fluorophenyl)amino)-6-methylisoquinolin-5-yl)thieno[3,2-d]pyrimidine-7-carboxamide]
[1]; oral 30 mg/kg, AUClast brain / AUClast plasma, read-out: B/P ratio
  Kp: 0.8
[1]; oral 30 mg/kg, brain
  Cmax: 6100 ng/g
  Tmax: 7 h
  AUCinf: 100848.0 ng·h/g
  AUClast: 100735.8 ng·h/g
[1]; oral 30 mg/kg, plasma
  AUC(0-t): 133000 ng·h/mL
  Cmax: 6210 ng/mL
  Tmax: 7 h
[1]; male, brain/plasma, oral, 15 mg/kg, read-out: B/P
  Kp: 0.93
[1]; male, in vivo, oral 15 mg/kg, plasma
  MRT last: 14.3 h
[1]; male, oral 15 mg/kg, AUClast brain / AUClast plasma, read-out: B/P ratio
  Kp: 0.929
[1]; male, oral 15 mg/kg, brain
  Cmax: 5240 ng/g
  MRT last: 11.8 h
  Tmax: 7 h
  half-life: 6.3 h
[1]; male, oral 15 mg/kg, plasma
  AUC(0-inf): 84300 ng·h/mL
  AUC(0-t): 84300 ng·h/mL
  Cmax: 4780 ng/mL
  Tmax: 4 h
  half-life: 6.6 h
[1]; male, oral 30 mg/kg, plasma
  AUC(0-inf): 133000 ng·h/mL
  AUC(0-t): 133000 ng·h/mL
[1]; oral 15 mg/kg, brain
  AUCinf: 78297.5 ng·h/g
  AUClast: 78259.6 ng·h/g
[1]; [3]
  general clinical signs: No clinical signs were observed
[2]; SD (Sprague-Dawley), oral 30 mg/kg, AUClast brain / AUClast plasma, read-out: B/P ratio
  Kp: 1.2
[2]; [4]
  Cmax: 4880 ng/g
  Tmax: 7 h
[2]; [5]
  AUC(0-t): 98000 ng·h/mL
  Cmax: 4150 ng/mL
  Tmax: 7 h
[2]; SD, oral 30 mg/kg, AUClast brain / AUClast plasma, read-out: B/P ratio
  Kp: 1.2
[2]; SD, oral 30 mg/kg, brain
  Tmax: 4 h
[2]; male, SD, brain/plasma, oral, 15 mg/kg, read-out: B/P
  Kp: 1.38
[2]; male, SD, oral 15 mg/kg, AUClast brain / AUClast plasma, read-out: B/P ratio
  Kp: 1.38
[2]; male, SD, oral 15 mg/kg, brain
  Cmax: 3910 ng/g
  MRT last: 15.5 h
  Tmax: 7 h
  half-life: 9 h
[2]; [6]
  AUC(0-inf): 50600 ng·h/mL
  AUC(0-t): 49400 ng·h/mL
  Cmax: 2130 ng/mL
  MRT last: 18 h
  Tmax: 4 h
  half-life: 12.5 h
[2]; male, SD, oral 30 mg/kg, plasma
  AUC(0-inf): 100000 ng·h/mL
[2]; oral 15 mg/kg, brain
  AUCinf: 68350.0 ng·h/g
  AUClast: 67954.7 ng·h/g
[2]; oral 30 mg/kg, brain
  AUCinf: 115222.3 ng·h/g
  AUClast: 113670.1 ng·h/g
[2]; [3]
  general clinical signs: No clinical signs were observed
